Measured values as given in patent publication US20110065760A1, “COMPOUNDS FOR THE INHIBITION OF ROTAMASES AND USE THEREOF” (Jerini AG, priority 2002, published 2011).

Columns and labels:
[1] = WST-1 cytotoxicity assay, HeLa; type: cell-based; conditions: human, HeLa cells (cervix carcinoma); WST-1, 48 h incubation; read-out: EC50 class, cytotoxic effect, CL-2 (HeLa)
Experimental: (§1) For this cytotoxic evaluation of the compounds the commercial available WST-1 assay (Roche) was used according to the manufacturer's instructions. The assay is based on the cleavage of the tetrazolium salt WST-1 by mitochondrial dehydrogenases found in viable cells. In general compounds were added to cells cultured in 96-well plates at 37° C. After 48 h of incubation 10 μl of WST-1 solution was added. The formazan dye was analyzed with an ELISA plate reader at (450 vs. 620) nm. CL-1: human acute myeloid leukemia, HL-60 CL-2: human cervix carcinoma, HeLa CL-3: human prostate carcinoma, PC-3 CL-4: human colon adenocarcinoma, Caco-2 CL-5: human breast adenocarcinoma, MCF-7

Hela cells = assay: DAPI staining; type: cell-based, human; conditions: FIG. 3
Experimental: Hela cells grown on poly-L-Lys-coated coverslips were fixed with 2% paraformaldehyde/MeOH.
Cellular DNA was stained with DAPI staining buffer (100 mM Tris (pH 7.4), 150 mM NaCl, 1 mM CaCl2, 0.5 mM MgCl2, 0.1% nonidet P-40, 1 μg/ml DAPI (Molecular Probes)). All the steps were performed at room temperature, and cells were washed two times with PBS after each step. Finally, cells were mounted in 80% glycerol/PBS.

[2] = WST-1 cytotoxicity assay, MCF-7; type: cell-based; conditions: human, MCF-7 cells (breast adenocarcinoma); WST-1, 48 h incubation; read-out: EC50 class, cytotoxic effect, CL-5 (MCF-7)
Experimental: as §1

hCyp18 = hCyp18 (Homo sapiens, UniProt P62937); assay: protease-coupled PPIase assay, hCyp18; type: biochemical; conditions: 10 nM hCyp18, substrate Suc-Ala-Phe-Pro-Phe-pNA, chymotrypsin, pH 7.8, 6° C.; read-out: IC50 class, Target T-3 (hCyp18)
Papain = biological target: T1, Papain (Carica papaya, UniProt P00784); assay: papain assay; type: biochemical; conditions: 16 μg/ml papain, 2 mM Bz-DL-Arg-pNA, pH 6.5, 30° C., 30 min incubation; read-out: IC50 class, Target T-6 (Papain)
T1 sequence (P00784 134-345): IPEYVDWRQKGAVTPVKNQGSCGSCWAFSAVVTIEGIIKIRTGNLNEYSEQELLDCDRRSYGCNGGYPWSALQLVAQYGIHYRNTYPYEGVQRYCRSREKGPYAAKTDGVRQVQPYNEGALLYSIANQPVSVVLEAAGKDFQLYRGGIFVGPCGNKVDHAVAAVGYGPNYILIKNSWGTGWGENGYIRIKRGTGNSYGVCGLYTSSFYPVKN
Method in brief: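 Enzyme pre-incubated 30 min with 1-100 μM compound at 30° C, then pNA substrate added; 4-nitroaniline release read at 390 nm. Trypsin: 0.1 μg/ml, 120 μM Ac-Ala-Ala-Ser(PO3H2)-Pro-Arg-pNA, HEPES pH 7.8; cathepsin B: 0.2 μg/ml, 2 mM Z-Arg-Arg-pNA, phosphate/EDTA/Brij 35 pH 5.8; papain: 16 μg/ml, 2 mM Bz-DL-Arg-pNA, phosphate/L-Cys/EDTA pH 6.5.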

hFKBP12 = hFKBP12 (Homo sapiens, UniProt P62942); assay: protease-coupled PPIase assay, hFKBP12; type: biochemical; conditions: 20 nM hFKBP12, substrate Suc-Ala-Phe-Pro-Phe-pNA, chymotrypsin, pH 7.8, 6° C.; read-out: IC50 class, Target T-2 (hFKBP12)
cathepsin B = cathepsin B (Homo sapiens, UniProt P07858); assay: cathepsin B assay; type: biochemical; conditions: 0.2 μg/ml cathepsin B, 2 mM Z-Arg-Arg-pNA, pH 5.8, 30° C., 30 min incubation; read-out: IC50 class, Target T-8 (Cathepsin)
Experimental: In order to investigate the impact of some of the inventive compounds on the activity of key proteases the following assay was performed: Protease activities were measured spectrophotometrically at 30° C. according to Schomburg and Salzmann (Schomburg, B.; Salzmann M. GBF: Enzyme Handbook. Springer Verlag, Berlin Heidelberg, 1991) and Bergmeyer et al. (Bergmeyer, H. U.; Bergmeyer, J.; Graβl, M. Methods of Enzymatic Analysis, Vol. V Enzymes 3: Peptides, Proteinases and Their Inhibitors. pp 55-371, VCH, Weinheim, 1988). The release of 4-nitroaniline was determined at 390 nm with a Spectramax Plus UV/Vis spectrophotometer (Molecular Devices). The cathepsin B assay was performed in a reaction mixture containing 0.2 μg/ml cathepsin B, 2 mM Z-Arg-Arg-pNA in 88 mM KH2PO4, 12 mM Na2HPO4, 1.33 mM EDTA, 0.03% Brij 35 (pH 5.8). The trypsin assay was carried out in a reaction mixture containing 0.1 μg/ml trypsin and 120 μM Ac-Ala-Ala-Ser(PO3H2)-Pro-Arg-pNA in 35 mM HEPES (pH 7.8) and the papain assay in a mixture consisting of 16 μg/ml papain and 2 mM Bz-DL-Arg-pNA in 10 mM Na2HPO4, 2 mM L-Cys, 5 mM EDTA (pH 6.5). In general, reactions were started by addition of peptide substrate after a 30 min incubation of 1-100 μM effector with given concentrations of enzyme.

Sequence of hFKBP12 (P62942 whole entry): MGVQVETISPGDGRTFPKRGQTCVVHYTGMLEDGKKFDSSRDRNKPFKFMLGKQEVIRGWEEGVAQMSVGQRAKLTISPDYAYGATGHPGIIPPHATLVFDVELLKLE
Sequence of hCyp18 (P62937 whole entry): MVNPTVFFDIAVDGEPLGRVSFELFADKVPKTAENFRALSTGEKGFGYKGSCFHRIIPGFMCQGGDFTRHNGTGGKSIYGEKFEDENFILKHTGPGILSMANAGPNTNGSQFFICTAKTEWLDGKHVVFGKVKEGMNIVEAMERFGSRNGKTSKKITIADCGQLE

Structure (SMILES): Cc1c(Cl)cc(NC(=O)NC(C)(C)CC(C)(C)C)c(O)c1Cl [Compound 102]
- EC50 at 48 h [1]: < 10 µM
- induction of apoptosis (DAPI staining, fluorescence microscopy) (Hela cells): induce apoptosis
- EC50 at 48 h [2]: < 10 µM
- IC50 (hCyp18): 10 to 50 µM
- IC50 (Papain): 50 to 100 µM
- IC50 (hFKBP12): > 100 µM
- IC50 (cathepsin B): 50 to 100 µM
